Converted amounts (≈) assume the structure as drawn. Where two headings read alike, the source gives them in different places. Marks after values point to notes of the source that are not given here.
Assays:
MRSA = test: Minimum bactericidal concentration (MBC) with and without white light; format: cell-based, S. aureus; conditions: Staphylococcus aureus, light or radiation study
Experimental: The bacterial media was inoculated with bacteria and incubated overnight. The bacterial cultures were diluted to 5×10^8 CFU/mL using a McFarland latex turbidity standard (0.5). Compound 1 was diluted with sterile DMSO, which was added to the cell suspension in glass culture tubes. The cells were then incubated for 30 minutes at 37° C. on a rotary shaking incubator at 150 rpm. 500 μL of the treated cell suspension was added to a well on a sterile ceramic drop plate. Non-coherent white light from a Lumacare™ LC-122 unit was used to irradiate the samples. The end of the light probe was placed 3 cm above the sample well, perpendicular to the surface of the sample, and light was applied for 2 minutes (15 seconds light, 15 seconds dark). 200 μL of the irradiated sample was transferred to a 96-well plastic microtiter plate and five ten-fold dilutions were made in the media. 10 μL of each dilution was dripped onto an agar media plate and was allowed to streak down the plate by tilting the plate down. The agar plates were incubated at 37° C. overnight and colony counts were performed to calculate the CFU/mL.
TABLE 14 details the MBC values of compounds 1-6 against MRSA with and without irradiation with white light. Irradiation involved treatment with a LumaCare™ light source at 3 cm from media for 1 min.

HeLa cells = test: Toxicity (IC50) on HeLa cells; format: cell-based, human; conditions: cancerous cervical epithelium HeLa cells; for IC50: Homo sapiens
Experimental: The toxicities of the compounds of the invention were determined for human cancerous cervical epithelium HeLa and normal lung fibroblast WI38 cells. The toxicities of EPIs INF-55 and INF-55Cl were quantified as controls. […] TABLE 2 compares the toxicity of compounds 7-11 on HeLa cells and normal WI38 cells.

S. aureus (ATCC 29213) = test: MIC against drug sensitive S. aureus; format: cell-based; conditions: Staphylococcus aureus
VRE = test: MIC against VRE; format: cell-based, Enterococcus faecalis
Experimental: In a 12×75 mm borosilicate glass culture tube, 1 mL of cell suspension was added. Then, compound 7 was added to the cells, and the samples were mixed using a vortex mixer. […] The samples were incubated overnight at 37° C. on a rotary shaking incubator at 100 rpm.

[1] = MIC against MRSA isolates; format: cell-based, S. aureus; conditions: Staphylococcus aureus
Experimental: (§1) The MICs of S. aureus ATCC 33591, BAA-44, BAA-1707, BAA-1717, BAA-1720, BAA-1747, BAA-1754, BAA-1761, BAA-1763, BAA-1764, and BAA-1766 were measured using a cell concentration of about 5×10^5 colony forming units (CFU)/mL. In a 96-well microtiter plate, two-fold dilutions were made of each drug (starting with 100 μM) in 100 μL of a cell suspension in trypticase soy broth (TSB). The samples were incubated overnight at 37° C. on a rotary shaking incubator set at 100 revolutions per minute (rpm) and were visually inspected for turbidity. A 20% well-volume of 3-(4,5-dimethylthiazol-2-yl)-2,5-diphenyltetrazolium bromide (MTT reagent, 5 mg/mL) was added, and the samples were incubated for about 20 minutes. The MICs were determined as the lowest concentration at which full visual inhibition was observed by the unaided eye.

[2] = system: MRSA isolates (S. aureus ATCC 33591, BAA-44, BAA-1707, BAA-1717, BAA-1720, BAA-1747, BAA-1754, BAA-1761, BAA-1763, BAA-1764, BAA-1766); test: MIC against MRSA isolates; format: cell-based
Experimental: as §1

[3] = 1 min, LumaCare light source at 3 cm from media for 1 min, read-out: MBC with irradiation
[4] = no irradiation, read-out: MBC in the dark
[5] = ATCC29213, ATCC 29213, read-out: S. aureus MIC
[6] = Enterococcus, TABLE 23, read-out: VRE MIC
[7] = MRSA (ATCC BAA-44), TABLE 21, read-out: MRSA MIC
[8] = antibiotics, MRSA isolate ATCC BAA-44
[9] = antibiotics, MRSA isolate ATCC BAA-1717
[10] = Enterococcus, common antibiotics, TABLE 24, read-out: MIC
[11] = antibiotics, MRSA isolate ATCC 33591
[12] = antibiotics, MRSA isolate ATCC BAA-1707
[13] = antibiotics, MRSA isolate ATCC BAA-1720
[14] = antibiotics, MRSA isolate ATCC BAA-1747
[15] = antibiotics, MRSA isolate ATCC BAA-1754
[16] = antibiotics, MRSA isolate ATCC BAA-1761
[17] = antibiotics, MRSA isolate ATCC BAA-1763
[18] = antibiotics, MRSA isolate ATCC BAA-1764
[19] = antibiotics, MRSA isolate ATCC BAA-1766

Compound: C(=C\c1[nH]c2ccccc2c1/C=C/c1ccccc1)/c1ccccc1 [Compound 2]
- MBC (MRSA; [3]): 0.5 µM (≈ 0.161 µg/mL)
- MBC (MRSA; [4]): 100 µM (≈ 32.1 µg/mL)

Compound: COc1ccc(/C=C/c2[nH]c3ccccc3c2/C=C/c2ccc(OC)cc2)cc1 [Compound 3]
- MBC (MRSA; [3]): 0.5 µM (≈ 0.191 µg/mL)
- MBC (MRSA; [4]): 200 µM (≈ 76.3 µg/mL)

Compound: Clc1ccccc1/C=C/c1[nH]c2ccccc2c1/C=C/c1ccccc1Cl [Compound 5]
- MBC (MRSA; [3]): 0.5 µM (≈ 0.195 µg/mL)
- MBC (MRSA; [4]): 200 µM (≈ 78.1 µg/mL)

Compound: Clc1cccc(/C=C/c2[nH]c3ccccc3c2/C=C/c2cccc(Cl)c2)c1 [Compound 6]
- MBC (MRSA; [3]): 1 µM (≈ 0.39 µg/mL)
- MBC (MRSA; [4]): 200 µM (≈ 78.1 µg/mL)

Compound: Clc1ccc(-c2cc3[nH]c4ccccc4c3cc2-c2ccc(Cl)cc2)cc1 [Compound 13]
- IC50 (HeLa cells): 16.4 ± 1.1 µM

Compound: Clc1ccc(Sc2c(-c3ccc(Br)cc3)[nH]c3ccccc23)cc1 [Compound 14]
- IC50 (HeLa cells): 12.2 ± 1.6 µM

Compound: Clc1ccc(-c2cc3ccccc3[nH]2)cc1 [Compound 15]
- IC50 HeLa (HeLa cells): Non-Toxic

Compound: Clc1ccc(Sc2c(-c3ccc(Cl)cc3)[nH]c3ccccc23)cc1 [Compound 16]
- IC50 (HeLa cells): 6.4 ± 1 µM

Compound: O=S(=O)(c1ccc(Cl)cc1)c1c(-c2ccc(Cl)cc2)[nH]c2ccccc12 [Compound 18]
- IC50 (HeLa cells): 14.3 ± 0.7 µM

Compound: O=C(c1ccc(Cl)cc1)c1c(-c2ccc(Cl)cc2)[nH]c2ccccc12 [Compound 19]
- IC50 (HeLa cells): 35.8 ± 6 µM

Compound: O=[N+]([O-])c1ccc2[nH]c(-c3ccc(Cl)cc3)cc2c1 [Compound 20]
- IC50 HeLa (HeLa cells): Non-Toxic

Compound: Clc1ccc(Sc2c(-c3ccc(Cl)cc3)[nH]c3ccc(Cl)cc23)cc1 [Compound 21]
- IC50 (HeLa cells): 8.2 ± 1 µM

Compound: Clc1ccc(Oc2c(-c3ccc(Cl)cc3)[nH]c3ccc(Br)cc23)cc1 [Compound 22]
- IC50 (HeLa cells): 3.2 ± 0.4 µM

Compound: Fc1ccc2[nH]c(-c3ccc(Cl)cc3)c(Oc3ccc(Cl)cc3)c2c1 [Compound 23]
- IC50 (HeLa cells): 12.9 ± 3.2 µM

Compound: COc1ccc2[nH]c(-c3ccc(Cl)cc3)c(Oc3ccc(Cl)cc3)c2c1 [Compound 24]
- IC50 (HeLa cells): 23.9 ± 1.8 µM

Compound: Fc1cccc2c(Oc3ccc(Cl)cc3)c(-c3ccc(Cl)cc3)[nH]c12 [Compound 25]
- IC50 (HeLa cells): 13 ± 3.5 µM

Compound: CCOC(=O)c1ccc2[nH]c(-c3ccc(Cl)cc3)c(Oc3ccc(Cl)cc3)c2c1 [Compound 26]
- IC50 (HeLa cells): 18.6 ± 1.1 µM

Compound: Clc1ccc(/N=N/c2c(-c3ccc(Br)cc3)[nH]c3ccccc23)cc1 [Compound 27]
- IC50 (HeLa cells): 12.5 ± 0.2 µM

Compound: Brc1ccc(/N=N/c2c(-c3ccc(Br)cc3)[nH]c3ccccc23)cc1 [Compound 28]
- IC50 (HeLa cells): 8.6 ± 1.4 µM

Compound: Fc1ccc(/N=N/c2c(-c3ccc(F)cc3)[nH]c3ccccc23)cc1 [Compound 29]
- IC50 (HeLa cells): 11.6 ± 0.7 µM

Compound: COC(=O)n1c(Br)c(Br)c2ccccc21 [Compound 31]
- IC50 HeLa (HeLa cells): Non-Toxic

Compound: Cc1onc(-c2c(Cl)cccc2Cl)c1C(=O)N[C@@H]1C(=O)N2[C@@H]1SC(C)(C)[C@@H]2C(=O)O [Dicloxicillin, reference compound]
- MIC (S. aureus (ATCC 29213); [5]): 50 to 100 mg/L (≈ 106 to 213 µM)
- MIC (VRE; [6]): 4 mg/L (≈ 8.5 µM)

Compound: C[C@H]1c2cccc(O)c2C(=O)C2=C(O)[C@]3(O)C(=O)C(C(N)=O)=C(O)[C@@H](N(C)C)[C@@H]3[C@@H](O)[C@@H]21 [Doxycycline, reference compound]
- MIC [1, 7]: 3.12 mg/L (≈ 7.02 µM)
- MIC (S. aureus (ATCC 29213); [5]): 3.12 mg/L (≈ 7.02 µM)
- MIC (VRE; [6]): 0.25 to 0.5 mg/L (≈ 0.563 to 1.13 µM)

Compound: CC[C@H]1OC(=O)[C@H](C)[C@@H](O[C@H]2C[C@@](C)(OC)[C@@H](O)[C@H](C)O2)[C@H](C)[C@@H](O[C@@H]2O[C@H](C)C[C@H](N(C)C)[C@H]2O)[C@](C)(O)C[C@@H](C)C(=O)[C@H](C)[C@@H](O)[C@]1(C)O [Erythromycin, reference compound]
- MIC [1, 8]: > 1000 mg/L
- MIC [1, 9]: 30 mg/L (≈ 40.9 µM)
- MIC (VRE; [10]): > 32 mg/L
- S/R (VRE; TABLE 24): R

Compound: O=[N+]([O-])c1ccc2[nH]c(-c3ccccc3)cc2c1 [INF-55, reference compound]
- IC50 HeLa (HeLa cells): Non-Toxic

Compound: CC1(C)S[C@@H]2[C@H](NC(=O)Cc3ccccc3)C(=O)N2[C@H]1C(=O)O [Penicillin G]
- S/R (VRE; TABLE 24): S
- MIC (VRE; common antibiotics, TABLE 24): 2 mg/L (≈ 5.98 µM)

Compound: CN(C)[C@@H]1C(O)=C(C(N)=O)C(=O)[C@@]2(O)C(O)=C3C(=O)c4c(O)cccc4[C@@](C)(O)[C@H]3C[C@@H]12 [Tetracycline]
- MIC (VRE; [10]): < 0.5 mg/L
- S/R (VRE; TABLE 24): S

Compound: NC[C@H]1O[C@H](O[C@H]2[C@H](O)[C@@H](O[C@H]3O[C@H](CO)[C@@H](O)[C@H](N)[C@H]3O)[C@H](N)C[C@@H]2N)[C@H](N)C[C@@H]1O [Tobramycin, reference compound]
- MIC [1, 7]: > 5000 mg/L
- MIC (S. aureus (ATCC 29213); [5]): 0.25 mg/L (≈ 0.535 µM)
- MIC (VRE; [6]): > 200 mg/L

Compound: CN[C@H](CC(C)C)C(=O)N[C@H]1C(=O)N[C@@H](CC(N)=O)C(=O)N[C@H]2C(=O)N[C@H]3C(=O)N[C@H](C(=O)N[C@H](C(=O)O)c4cc(O)cc(O)c4-c4cc3ccc4O)[C@H](O)c3ccc(c(Cl)c3)Oc3cc2cc(c3O[C@@H]2O[C@H](CO)[C@@H](O)[C@H](O)[C@H]2O[C@H]2C[C@](C)(N)[C@H](O)[C@H](C)O2)Oc2ccc(cc2Cl)[C@H]1O [Vancomycin, reference compound]
- MIC [1, 11]: < 3.1 mg/L
- MIC [1, 8]: 3.1 mg/L (≈ 2.14 µM)
- MIC [1, 12]: < 3.1 mg/L
- MIC [1, 9]: < 1.6 mg/L
- MIC [1, 13]: < 3.1 mg/L
- MIC [1, 14]: < 3.1 mg/L
- MIC [1, 15]: < 3.1 mg/L
- MIC [1, 16]: < 3.1 mg/L
- MIC [1, 17]: < 3.1 mg/L
- MIC [1, 18]: < 3.1 mg/L
- MIC [1, 19]: < 3.1 mg/L
- MIC ([1]; read-out: MRSA MIC, MRSA (ATCC BAA-44), TABLE 21): 3.12 mg/L (≈ 2.15 µM)
- MIC (S. aureus (ATCC 29213); ATCC29213, read-out: S. aureus MIC): 2 mg/L (≈ 1.38 µM)
- MIC (VRE; Enterococcus): 64 mg/L (≈ 44.2 µM)
- MIC (VRE; Enterococcus, read-out: VRE MIC): > 40 mg/L
- S/R (VRE; TABLE 24): R

Compound: Gentamycin [reference compound]
- MIC [2, 11]: >100* μg/mL
- MIC [2, 8]: >200* μg/mL
- MIC [2, 12]: <3.1 µg/mL
- MIC [2, 9]: 3.1 µg/mL
- MIC [2, 13]: <3.1 µg/mL
- MIC [2, 14]: 6.3 µg/mL
- MIC [2, 15]: <3.1 µg/mL
- MIC [2, 16]: <3.1 µg/mL
- MIC [2, 17]: 3 to 6 µg/mL
- MIC [2, 18]: <3.1 µg/mL
- MIC [2, 19]: 12.5* μg/mL

Compound: INF-55Cl [reference compound]
- IC50 HeLa (HeLa cells): Non-Toxic

Compound: Penicillin [reference compound]
- MIC ([2]; Penicillin, MRSA isolate ATCC BAA-44): 1.6* mg/mL
- MIC ([2]; Penicillin, MRSA isolate ATCC BAA-1717): 1* mg/mL

Source: US9834514B2, “Antibiotic sensitivity-restoring and photosensitive agents” (New Mexico Tech Research Foundation, priority 2015, dated 2017)
